Values quoted from earlier work, collected in patent US20170072004A1, “COMPOSITIONS AND METHODS FOR IMPROVING THE BIOAVAILABILITY OF CURCUMINOIDS” (priority 2015, published 2017).

Details: rats, oral curcumin 2 g/kg, co-administration of piperine

## COc1cc(/C=C/C(=O)CC(=O)/C=C/c2ccc(O)c(OC)c2)ccc1O [curcumin, diferuloylmethane]
  Increase in systemic bioavailability following oral dosing: ≤ 154%
